One experiment concerns the target T1, hCA II (Homo sapiens, UniProt P00918).
T1 construct: gene CA2; cytosolic isoform
Put plainly: stopped-flow CO2 hydrase assay. It counts as biochemical. From the text:
stopped-flow CO2 hydrase assay on hCA II

A further experiment deals with T2, hCA I (Homo sapiens, UniProt P00915).
T2 construct: gene CA1; cytosolic isoform
The experiment in a line: stopped-flow CO2 hydrase assay. It counts as biochemical. From the text: stopped-flow CO2 hydrase assay on hCA I

A further experiment deals with T3, mtCA 3 (Mycobacterium tuberculosis, UniProt P96878).
T3 construct: beta-class carbonic anhydrase
T3 sequence (P96878 entry or part of it): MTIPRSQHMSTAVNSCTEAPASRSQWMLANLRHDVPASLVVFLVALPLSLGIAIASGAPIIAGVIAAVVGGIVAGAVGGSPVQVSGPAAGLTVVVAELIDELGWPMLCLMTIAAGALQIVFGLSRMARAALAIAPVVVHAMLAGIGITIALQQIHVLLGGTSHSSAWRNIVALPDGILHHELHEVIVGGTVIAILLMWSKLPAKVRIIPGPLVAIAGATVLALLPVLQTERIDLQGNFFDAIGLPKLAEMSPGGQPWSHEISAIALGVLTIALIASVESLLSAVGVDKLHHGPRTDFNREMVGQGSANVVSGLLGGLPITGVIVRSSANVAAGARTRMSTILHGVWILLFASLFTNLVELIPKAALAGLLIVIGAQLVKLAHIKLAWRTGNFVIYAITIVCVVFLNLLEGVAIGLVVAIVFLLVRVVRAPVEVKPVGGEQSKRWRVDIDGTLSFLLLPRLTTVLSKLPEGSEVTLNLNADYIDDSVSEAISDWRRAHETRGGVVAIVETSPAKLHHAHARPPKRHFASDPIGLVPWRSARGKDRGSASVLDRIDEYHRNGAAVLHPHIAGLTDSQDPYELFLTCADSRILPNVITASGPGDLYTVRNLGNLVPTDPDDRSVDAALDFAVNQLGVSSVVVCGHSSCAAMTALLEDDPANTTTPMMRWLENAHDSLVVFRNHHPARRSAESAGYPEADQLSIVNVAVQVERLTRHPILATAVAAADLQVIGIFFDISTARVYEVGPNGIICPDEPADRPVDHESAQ
The experiment in a line: biochemical. Also noted: stopped-flow CO2 hydration assay, phenol red absorbance at 557 nm, 15 min pre-incubation, Ki by Cheng-Prusoff. The protocol: An Sx.18Mv-R Applied Photophysics (Oxford, UK) stopped-flow instrument has been used to assay the catalytic activity of various CA isozymes for CO2 hydration reaction. Phenol red (at a concentration of 0.2 mM) was used as indicator, working at the absorbance maximum of 557 nm, with 10 mM Hepes (pH 7.5) or 10 mM Tris (pH 8.5) as buffers, and 0.1 M Na2SO4 (for maintaining constant ionic strength, which is not inhibitory against these enzymes), following the CA-catalysed CO2 hydration reaction for a period of 10 s at 25 °C. The CO2 concentrations ranged from 1.7 to 17 mM for the determination of the kinetic parameters and […]. For each inhibitor at least six traces of the initial 5–10% of the reaction have been used for determining the initial rate. The uncatalysed rates were determined in the same manner and subtracted from the total observed rates. Stock solutions of inhibitors (10 mM) were prepared in distilled-deionised […] to 1 nM using the assay buffer. Inhibitor and enzyme solutions were pre-incubated together for 15 min (standard assay at room temperature) prior to assay, in order to allow for the formation of the enzyme–inhibitor complex. The inhibition constant (KI), was obtained by considering the classical Michaelis–Menten equation and the Cheng-Prusoff algorithm by using non-linear least squares fitting as reported earlier. The compounds 5 and 6 reported here were investigated as inhibitors of three CAs involved in crucial physiologic processes and known to act as drug targets, i.e. the human (h) isoforms hCA I and II (belonging to the α-CA class) and the bacterial enzyme mtCA3 from Mycobacterium tuberculosis (a β-class CA) (Table 3). Acetazolamide (AAZ), a clinically used sulphonamide has been employed as standard inhibitor in the assay.

Where only a bound is given, the exact number is not on record here.

T2 sequence (P00915 2-261): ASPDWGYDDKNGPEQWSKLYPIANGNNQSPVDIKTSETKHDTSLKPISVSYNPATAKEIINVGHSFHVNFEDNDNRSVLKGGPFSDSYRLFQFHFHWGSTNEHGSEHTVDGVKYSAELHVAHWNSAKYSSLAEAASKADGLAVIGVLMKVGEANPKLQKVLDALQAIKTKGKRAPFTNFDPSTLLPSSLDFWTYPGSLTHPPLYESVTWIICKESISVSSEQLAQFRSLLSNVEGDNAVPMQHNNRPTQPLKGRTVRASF

`NS(=O)(=O)c1ccc(NCC(=O)N2N=C(c3ccc(Cl)cc3)CC2c2ccccc2)cc1` (stereo not drawn) [5a, 4-((2-(3-(4-Chlorophenyl)-5-phenyl-4,5-dihydro-1H-pyrazol-1-yl)-2-oxoethyl)amino) benzenesulphonamide]: the inhibition constant (Ki) (commonly a measure of affinity in units of concentration, obtained from inhibition or displacement) on hCA II amounted to 282 nM; on hCA I, 306 nM; at mtCA 3, 1800 nM.

Consider `NS(=O)(=O)c1ccc(NCC(=O)N2N=C(c3ccc(Cl)cc3)CC2c2ccc(F)cc2)cc1` (stereo not drawn) [5b, 4-((2-(3-(4-Chlorophenyl)-5-(4-fluorophenyl)-4,5-dihydro-1H-pyrazol-1-yl)-2-oxoethyl)amino) benzenesulphonamide], for which the inhibitory constant (Ki) is 500 nM on hCA II and 441 nM on hCA I.

As for `NS(=O)(=O)c1ccc(NCC(=O)N2N=C(c3ccc(Cl)cc3)CC2c2ccc(Br)cc2)cc1` (stereo not drawn) [5c, 4-((2-(3-(4-Chlorophenyl)-5-(4-bromophenyl)-4,5-dihydro-1H-pyrazol-1-yl)-2-oxoethyl)amino) benzenesulphonamide], the Ki at hCA II worked out at 2850 nM; at hCA I, 634 nM; on mtCA 3, 732 nM.

On to `Cc1ccc(C2CC(c3ccc(Cl)cc3)=NN2C(=O)CNc2ccc(S(N)(=O)=O)cc2)cc1` (stereo not drawn) [5d, 4-((2-(3-(4-Chlorophenyl)-5-(4-methylphenyl)-4,5-dihydro-1H-pyrazol-1-yl)-2-oxoethyl)amino)benzenesulphonamide], for which the Ki on hCA II was found to be 426 nM; at hCA I it was 93.4 nM; on mtCA 3, 175 nM.

For the molecule `NS(=O)(=O)c1ccc(NCC(=O)N2N=C(c3ccc(Cl)cc3)CC2c2ccncc2)cc1` (stereo not drawn) [5e, 4-((2-(3-(4-Chlorophenyl)-5-(pyridin-4-yl)-4,5-dihydro-1H-pyrazol-1-yl)-2-oxoethyl)amino) benzenesulphonamide], the inhibition constant Ki came to 42.3 nM at hCA II, 175 nM at hCA I and 138 nM at mtCA 3.

Take `NS(=O)(=O)c1ccc(NCC(=O)N2N=C(c3ccc(Cl)cc3)CC2c2ccccc2Cl)cc1` (stereo not drawn) [5f, 4-((2-(3-(4-Chlorophenyl)-5-(2-chlorophenyl)-4,5-dihydro-1H-pyrazol-1-yl)-2-oxoethyl)amino)benzenesulphonamide]: the Ki at hCA II worked out at 433 nM; on hCA I, 445 nM; at mtCA 3 it was 215 nM.

With `NS(=O)(=O)c1ccc(NCC(=O)N2N=C(c3ccc(Cl)cc3)CC2c2ccccc2O)cc1` (stereo not drawn) [5g, 4-((2-(3-(4-Chlorophenyl)-5-(2-hydroxyphenyl)-4,5-dihydro-1H-pyrazol-1-yl)-2-oxoethyl)amino)benzenesulphonamide], the inhibitory constant (Ki) was 578 nM on hCA II, 174 nM on hCA I and 147 nM on mtCA 3.

With `COc1ccc(C2CC(c3ccc(Cl)cc3)=NN2C(=O)CNc2ccc(S(N)(=O)=O)cc2)cc1OC` (stereo not drawn) [5h, 4-((2-(3-(4-Chlorophenyl)-5-(3,4-dimethoxyphenyl)-4,5-dihydro-1H-pyrazol-1-yl)-2-oxoethyl)amino)benzenesulphonamide], the Ki on hCA II was found to be 424 nM; on hCA I, 280 nM; on mtCA 3, 186 nM.

Consider `NS(=O)(=O)c1ccc(NCC(=O)N2N=C(c3ccc(Cl)cc3)CC2c2cccs2)cc1` (stereo not drawn) [5i, 4-((2-(3-(4-Chlorophenyl)-5-(thiophen-2-yl)-4,5-dihydro-1H-pyrazol-1-yl)-2-oxoethyl)amino)benzenesulphonamide], for which the Ki at hCA II amounted to 373 nM; at hCA I, 276 nM; on mtCA 3 it was 233 nM.

For the molecule `NS(=O)(=O)c1ccc(NCC(=O)N2N=C(c3ccc(Cl)cc3)CC2c2c3ccccc3cc3ccccc23)cc1` (stereo not drawn) [5j, 4-((2-(5-(Anthracen-9-yl)-3-(4-chlorophenyl)-4,5-dihydro-1H-pyrazol-1-yl)-2-oxoethyl)amino)benzenesulphonamide], the values for the Ki at hCA II, at hCA I and at mtCA 3 were 2020 nM, 91.8 nM and 157 nM, respectively.

Take `NS(=O)(=O)c1ccc(NCC(=O)N2N=C(c3ccc(Cl)cc3)CC2c2c[nH]c3ccccc23)cc1` (stereo not drawn) [5k, 4-((2-(3-(4-Chlorophenyl)-5-(1H-indol-3-yl)-4,5-dihydro-1H-pyrazol-1-yl)-2-oxoethyl)amino)benzenesulphonamide]: the Ki at hCA II is 392 nM; at hCA I it was 440 nM; at mtCA 3, 127 nM.

For `CC1=NN(C(=O)CNc2ccc(S(N)(=O)=O)cc2)C(c2ccccc2)C1` (stereo not drawn) [5l, 4-((2-(3-Methyl-5-phenyl-4,5-dihydro-1H-pyrazol-1-yl)-2-oxoethyl)amino) benzene sulphonamide], the Ki turned out to be 810 nM at hCA II, 760 nM at hCA I and 1580 nM on mtCA 3.

Turning to `COc1ccc(C2CC(C)=NN2C(=O)CNc2ccc(S(N)(=O)=O)cc2)cc1` (stereo not drawn) [5m, 4-((2-(5-(4-Methoxyphenyl)-3-methyl-4,5-dihydro-1H-pyrazol-1-yl)-2-oxoethyl)amino)benzenesulphonamide], the inhibitory constant (Ki) at hCA II was 5550 nM; on hCA I, 2370 nM; on mtCA 3, > 10000 nM.

`CC1=NN(C(=O)CNc2ccc(S(N)(=O)=O)cc2)C(c2ccc(Cl)cc2)C1` (stereo not drawn) [5n, 4-((2-(5-(4-Chlorophenyl)-3-methyl-4,5-dihydro-1H-pyrazol-1-yl)-2-oxoethyl)amino)benzenesulphonamide]: the Ki on hCA II is 944 nM; at hCA I, 835 nM; at mtCA 3, 1290 nM.

As to `CC1=NN(C(=O)CNc2ccc(S(N)(=O)=O)cc2)C(c2ccc(C)cc2)C1` (stereo not drawn) [5o, 4-((2-(3-Methyl-5-(p-tolyl)-4,5-dihydro-1H-pyrazol-1-yl)-2-oxoethyl)amino)benzene sulphonamide], the Ki at hCA II stood at 3460 nM; at hCA I, 898 nM; at mtCA 3, 275 nM.

`CC1=NN(C(=O)CNc2ccc(S(N)(=O)=O)cc2)C(c2ccc(F)cc2)C1` (stereo not drawn) [5p, 4-((2-(5-(4-Fluorophenyl)-3-methyl-4,5-dihydro-1H-pyrazol-1-yl)-2-oxoethyl)amino)benzenesulphonamide]: the Ki at hCA II is 903 nM; on hCA I it was 665 nM; on mtCA 3, 250 nM.

`CC1=NN(C(=O)CNc2ccc(S(N)(=O)=O)cc2)C(c2ccccc2Cl)C1` (stereo not drawn) [5q, 4-((2-(5-(2-Chlorophenyl)-3-methyl-4,5-dihydro-1H-pyrazol-1-yl)-2-oxoethyl)amino)benzenesulphonamide]: the results for the inhibitory constant (Ki) at hCA II, on hCA I and at mtCA 3 were 648 nM, 742 nM and 623 nM, respectively.

On to `CC1=NN(C(=O)CNc2ccc(S(N)(=O)=O)cc2)C(c2ccccc2O)C1` (stereo not drawn) [5r, 4-((2-(5-(2-Hydroxyphenyl)-3-methyl-4,5-dihydro-1H-pyrazol-1-yl)-2-oxoethyl)amino)benzenesulphonamide], for which the Ki on hCA II amounted to 83.1 nM; at hCA I, 721 nM; at mtCA 3, 1590 nM.

As to `CC1=NN(C(=O)CNc2ccc(S(N)(=O)=O)cc2)C(c2ccc(O)cc2)C1` (stereo not drawn) [5s, 4-((2(5-(4-Hydroxyphenyl)-3-methyl-4,5-dihydro-1H-pyrazol-1-yl)-2-oxoethyl)amino)benzenesulphonamide], the figures for the Ki at hCA II, at hCA I and at mtCA 3 were 73.6 nM, 738 nM and 265 nM, respectively.

With `COc1ccc(/C=N/NC(=O)CNc2ccc(S(N)(=O)=O)cc2)cc1OC` [6e, 4-((2-(2-(3,4-Dimethoxybenzylidene)hydrazinyl)-2-oxoethyl)amino) benzenesulphonamide], the Ki turned out to be 758 nM at hCA II and 1800 nM at hCA I.

Turning to `NS(=O)(=O)c1ccc(NCC(=O)N/N=C/c2ccc(O)cc2)cc1` [6g, 4-((2-(2-(4-Hydroxybenzylidene)hydrazinyl)-2-oxoethyl)amino) benzenesulphonamide], the values for the Ki on hCA II and on hCA I were 255 nM and 327 nM, respectively.

For the origin of these results see PMC6010129, “Evaluation of sulphonamide derivatives acting as inhibitors of human carbonic anhydrase isoforms I, II and Mycobacterium tuberculosisβ-class enzyme Rv3273” (Journal of Enzyme Inhibition and Medicinal Chemistry, 2018).
